Data published in patent US20150175599A1, “FAAH Inhibitors” (Ironwood Pharmaceuticals, Inc., priority 2010, published 2015).

target: T1, FAAH (Rattus norvegicus, UniProt P97612); test: FAAH inhibition, rat brain membrane homogenate assay; format: biochemical; conditions: not given
T1 construct: For the assay of FAAH activity in rat brain membrane (RBM) homogenates; tissue Charles River (animals); host or cells: rat whole brain, membrane fraction
T1 sequence (P97612 1-579): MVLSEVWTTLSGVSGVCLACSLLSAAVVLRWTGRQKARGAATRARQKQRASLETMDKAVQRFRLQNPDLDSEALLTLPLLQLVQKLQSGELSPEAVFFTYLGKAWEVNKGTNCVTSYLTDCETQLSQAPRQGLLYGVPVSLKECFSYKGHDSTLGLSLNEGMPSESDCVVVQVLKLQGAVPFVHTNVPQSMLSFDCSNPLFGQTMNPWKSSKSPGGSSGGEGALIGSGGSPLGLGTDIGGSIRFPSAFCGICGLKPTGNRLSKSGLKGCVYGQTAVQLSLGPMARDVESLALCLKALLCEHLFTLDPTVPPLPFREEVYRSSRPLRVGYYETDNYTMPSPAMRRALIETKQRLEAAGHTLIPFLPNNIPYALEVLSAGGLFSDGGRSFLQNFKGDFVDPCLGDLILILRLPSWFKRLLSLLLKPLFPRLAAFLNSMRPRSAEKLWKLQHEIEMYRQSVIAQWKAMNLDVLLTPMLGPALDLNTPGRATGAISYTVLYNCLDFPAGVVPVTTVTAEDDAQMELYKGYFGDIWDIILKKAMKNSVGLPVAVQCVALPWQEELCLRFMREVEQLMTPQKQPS
How it was run: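 Membranes from female CD rat brain (Tris pH 7.4/EDTA/MgCl2 resuspension), 7 μg protein, incubated 10 min at 37 °C with [3H]anandamide plus […] unlabelled AEA, 1 mg/mL fatty acid-free BSA, Tris-HCl pH 6.5, 1 mM EDTA, 1% DMSO. [3H]ethanolamine separated by chloroform/methanol extraction or charcoal filtration, scintillation-counted; IC50 derived.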

`COc1cc(NC(=O)C(=O)c2c(C)n(Cc3ncc(F)cc3F)c3ccc(C)cc23)ccn1` [Compound 88, 2-(1-((3,5-difluoropyridin-2-yl)methyl)-2,5-dimethyl-1H-indol-3-yl)-N-(2-methoxypyridin-4-yl)-2-oxoacetamide] was tested, and the IC50 was less than 100 nM.

same assay, conditions: rat brain homogenate; average activity; read-out: Rat Brain Extract FAAH IC50

`Cc1c(C(=O)C(=O)Nc2cccc(Cl)c2)c2cc(O)ccc2n1Cc1ccc(Cl)cc1` [Compound 71, 2-(1-(4-chlorobenzyl)-5-hydroxy-2-methyl-1H-indol-3-yl)-N-(3-chlorophenyl)-2-oxoacetamide] and `COc1cc(NC(=O)C(=O)c2c(C)n(Cc3ccc(Cl)cc3)c3ccc(N)c(Cl)c23)ccn1` [Compound 73, 2-(5-amino-4-chloro-1-(4-chlorobenzyl)-2-methyl-1H-indol-3-yl)-N-(2-methoxypyridin-4-yl)-2-oxoacetamide] fall in the same range of IC50: 100 to 1000 nM for the first, 100 to 1000 nM for the second.

`COc1cc(NC(=O)C(=O)c2c(C)n(Cc3ccc(Cl)cc3)c3cc(F)c(OC)cc23)ccn1` [Compound 72, 2-(1-(4-chlorobenzyl)-6-fluoro-5-methoxy-2-methyl-1H-indol-3-yl)-N-(2-methoxypyridin-4-yl)-2-oxoacetamide] and `COc1cc(NC(=O)C(=O)c2c(C)n(Cc3ccc(Cl)cc3)c3cc(C)c(OC)cc23)ccn1` [Compound 74, 2-(1-(4-chlorobenzyl)-5-methoxy-2,6-dimethyl-1H-indol-3-yl)-N-(2-methoxypyridin-4-yl)-2-oxoacetamide] cannot be ordered by IC50: less than 100 nM for the first, less than 100 nM for the second.

`COc1cc(NC(=O)C(=O)c2c(C)n(Cc3ccc(Cl)cn3)c3ncc(C)cc23)ccn1` [Compound 75, (1-((5-chloropyridin-2-yl)methyl)-2,5-dimethyl-1H-pyrrolo[2,3-b]pyridin-3-yl)-N-(2-methoxypyridin-4-yl)-2-oxoacetamide] and `COc1cc(NC(=O)C(=O)c2c(C)n(Cc3ccc(Cl)cc3)c3ncc(C)cc23)ccn1` [Compound 76, 2-(1-(4-chlorobenzyl)-2,5-dimethyl-1H-pyrrolo[2,3-b]pyridin-3-yl)-N-(2-methoxypyridin-4-yl)-2-oxoacetamide] cannot be ordered by IC50: less than 100 nM for the first, less than 100 nM for the second.

`COc1ccc2c(c1)c(C(=O)C(=O)Nc1ccnc(OC)c1)c(C)n2Cc1ccccn1` [Compound 77, 2-(5-methoxy-2-methyl-1-(pyridin-2-ylmethyl)-1H-indol-3-yl)-N-(2-methoxypyridin-4-yl)-2-oxoacetamide] and `COc1ccc2c(c1)c(C(=O)C(=O)Nc1ccnc(OC)c1)c(C)n2Cc1ncc(Cl)cc1OC` [Compound 100, 2-(1-((5-chloro-3-methoxypyridin-2-yl)methyl)-5-methoxy-2-methyl-1H-indol-3-yl)-N-(2-methoxypyridin-4-yl)-2-oxoacetamide] cannot be ordered by IC50: less than 100 nM for the first, less than 100 nM for the second.

`COc1cc(NC(=O)C(=O)c2c(C)n(Cc3ccc(Cl)cn3)c3cc(C)c(OC)cc23)ccn1` [Compound 95, 2-(1-((5-chloropyridin-2-yl)methyl)-5-methoxy-2,6-dimethyl-1H-indol-3-yl)-N-(2-methoxypyridin-4-yl)-2-oxoacetamide] and `COc1ccc(Cn2c(C)c(C(=O)C(=O)Nc3ccnc(OC)c3)c3cc(OC)c(C)cc32)nc1` [Compound 96, 2-(5-methoxy-1-((5-methoxypyridin-2-yl)methyl)-2,6-dimethyl-1H-indol-3-yl)-N-(2-methoxypyridin-4-yl)-2-oxoacetamide] cannot be ordered by IC50: less than 100 nM for the first, less than 100 nM for the second.

`COc1cc(NC(=O)C(=O)c2c(C)n(Cc3ncc(Cl)cc3F)c3cc(Cl)c(OC)cc23)ccn1` [Compound 97, 2-(6-chloro-1-((5-chloro-3-fluoropyridin-2-yl)methyl)-5-methoxy-2-methyl-1H-indol-3-yl)-N-(2-methoxypyridin-4-yl)-2-oxoacetamide] and `COc1cc(NC(=O)C(=O)c2c(C)n(Cc3ncc(Cl)cc3F)c3cc(F)c(OC)cc23)ccn1` [Compound 99, 2-(1-((5-chloro-3-fluoropyridin-2-yl)methyl)-6-fluoro-5-methoxy-2-methyl-1H-indol-3-yl)-N-(2-methoxypyridin-4-yl)-2-oxoacetamide] cannot be ordered by IC50: less than 100 nM for the first, less than 100 nM for the second.

`COc1ccc(Cn2c(C)c(C(=O)C(=O)Nc3ccnc(OC)c3)c3cc(OC)c(Cl)cc32)nc1` [Compound 98, 2-(6-chloro-5-methoxy-1-((5-methoxypyridin-2-yl)methyl)-2-methyl-1H-indol-3-yl)-N-(2-methoxypyridin-4-yl)-2-oxoacetamide] and `COc1cc(NC(=O)C(=O)c2c(C)n(Cc3ncc(F)cc3F)c3cc(F)c(OC)cc23)ccn1` [Compound 101, 2-(1-((3,5-difluoropyridin-2-yl)methyl)-6-fluoro-5-methoxy-2-methyl-1H-indol-3-yl)-N-(2-methoxypyridin-4-yl)-2-oxoacetamide] cannot be ordered by IC50: less than 100 nM for the first, less than 100 nM for the second.
